Results from patent US20260137697A1, “THIAZOLO[5,4-D]PYRIMIDINE COMPOUNDS, COMPOSITIONS COMPRISING THEM AND USES THEREOF” (University de Montreal, priority 2022, published 2026).
pIC50: −log10 of the molar value.

Experiments:
[1] = target: T1, CRAF (Homo sapiens, UniProt P04049); experiment: CRAF kinase activity assay (ADP-Glo); assay type: biochemical; details: Table 3; 10 μM ATP, kinase-dead MEK1 substrate
T1 construct: fused on or other part: GST tag (N-terminal according to the vendor's product)
Description: (§1) Compound preparation: solid samples of each substance in 1dram vials were suspended in DMSO (Fisher Scientific) at a stock concentration of 20 mM. Stocks were kept at −20° C. and protected from light. If solubility of the compound at 20 mM appeared to be an issue, the initial concentration of the DMSO stock was changed to 10 mM or 5 mM.
(§2) In vitro enzymatic reactions were used for evaluating compounds intrinsic activity against BRAF, CRAF and ARAF. For BRAF and CRAF, 0.375 nM of purified GST-tagged kinases (cat. No. B4062-10UG and cat. No. R1656-10UG respectively from Millipore Sigma) were incubated with 75 nM of kinase-dead MEK1 substrate (cat. No. 40075; BPS Bioscience) in the presence of 10 μM of Ultrapure ATP (cat. No. V9102; Promega; part V915A) with and without the test compound in a buffer containing 50 mM HEPES pH 7.5, 10 mM MgCl2, 1 mM EDTA, 0.01% Brij-35 and 2 mM DTT. Separate reactions were performed with the MEK1 substrate and ATP as a blank control. ARAF kinase reactions were rigorously the same with the exception that kinase concentration was raised to 3.75 nM (cat. No. 1768-0000-1; Reaction Biology).
(§3) For compound treatment, 5 μL/well of test substance solution are placed in a 384-well proxyplate (Perkin Elmer) and mixed with 2× concentrated kinase reactions. The dilution series is selected so that nine concentrations cover a range from 100 nM to 0.01 nM. […] The final concentration of DMSO in the assay is set at 0.05%.
(§4) BRAF and CRAF kinase reactions were carried out for a total of 2 hours at 30° C. and then stopped by 1/2 dilution in ADP-Glo Reagent (cat. No. V9102; Promega; part V912C). Reactions were then incubated for 1 h at room temperature before addition of one volume of Kinase Detection Reagent (cat. No. V9102; Promega; part V917A). Plates were then equilibrated at room temperature for 30 minutes before detection of luminescence on a Synergy Neo2 plate reader (Biotek). The effect of each compound dilution on BRAF and CRAF kinase activity was expressed as % inhibition and calculated as follows. First, the internal 100% inhibition control (average of luminescence in kinase reactions comprising kinase dead MEK1 substrate alone) was subtracted from each data point. The average of DMSO (vehicle) controls (set as 0% inhibition) was established and used to calculate % inhibition:
(§5) IC50 values were obtained by plotting the kinase inhibition values and fitting the dose-activity curves using a log(agonist) versus response—variable slope (four parameters) function using either GraphPadPrism (V7.0) or Dotmatics Screening Ultra platform. Standards included in the ARAF kinase assay were Belvarafenib (MedChem Express cat. No. HY-109080; CAS No. 1446113-23-0), LXH254 (MedChem Express cat. No. HY-112089; CAS No. 1800398-38-2) and BGB283 (cat. No. HY-18957; CAS No. 1446090-79-4).

[2] = tested on: pERK, HCT116 cells; experiment: Phospho-ERK inhibition, AlphaLISA p-ERK 1/2, HCT-116; assay type: cell-based, human; details: Table 3; for pIC50: HCT116 cells (KRAS G13D), 1 h treatment; for HCT116 pERK (Ymin %): lowest % inhibition value of the pERK IC50 curve, above −20% = no paradoxical induction
Description: All cancer cell lines (A375, A101D, A2058, RKO, HT29 SK-MEL 30, IPC298, HepG2, HCT-116, Lovo, SW620, SW480, NCI-H358, NCI-H2122, Calu-6, NCIH2087, NCIH1755, NCIH1666 and Mewo) were obtained from ATCC and cultured in RPM1-1640 medium (Gibco) supplemented with 5% heat inactivated fetal bovine serum (FBS, Wisent) at 37° C. under 5% CO2. Cells were maintained in T175 flasks (Greiner). They were passaged by removing the culture medium, washing once in 10 mL of room temperature Phosphate Buffered Saline (PBS; Wisent) and incubating at 37° C. with 2 mL of 0.05% Trypsin (Thermo-Fisher). Trypsin was then inactivated by adding complete growth medium and the cells were then replated in a T175 culture dish at the appropriate dilution. All cell lines were routinely tested for mycoplasma contamination. Tissue type and mutational status of each cell line can be found in Table B.
(c) Measurement of Phospho-ERK Inhibition in Cultivated Human Cancer Cell Lines by the AlphaLISA® SureFire® Ultra™ p-ERK 1/2 (Thr2O2/Tyr204)
AlphaLISA® SureFire® Ultra™ p-ERK 1/2 (Thr202/Tyr204) analysis was conducted on cells plated in 100 μL of complete RPMI-1640 growth medium in 96-well flat-bottomed transparent dishes (Costar) at a density indicated in Table C. Cells were maintained overnight at 37° C. under 5% CO2 before treatment with compounds' dilution series for one hour. The cell density in cells/cm^2 corresponds to cell number divided by the area of one well of a 96-well plate (0.143 cm^2).
In a dilution series 100 μL/well of test substance dilution prepared in complete RPMI-1640 growth media was added to the cells. The dilution series is selected so that ten concentrations cover a range from 10 μM to 0.33 nM. If necessary, the initial concentration of 10 μM is increased to 100 μM or lowered to 1 μM (as in the case of A375 and H1666 cells, which are generally more sensitive to the compounds) and further dilution is carried out accordingly. The final concentration of DMSO in the assay is set at 0.5%.
After treatment, media was removed, and cells were lysed in 50 μL of 1× AlphaScreen Ultra Lysis Buffer (Perkin Elmer). The AlphaLISA® SureFire® Ultra™ p-ERK 1/2 (Thr202/Tyr204) (PerkinElmer) reactions were performed with 5 μL of cell lysate according to the manufacturer's specifications in 384-well proxyplates (Perkin Elmer) followed by overnight incubation of the reactions at room temperature in a humidified chamber. After completion of the reactions, the signals were recorded on an EnVision plate reader (Perkin Elmer) using built in AlphaLISA® settings.
The effect of each compound dilution on the pERK signal was expressed in % inhibition and calculated as follows. An internal 100% inhibition control (1 μM trametinib, cat. No. HY-10999; MedChem Express; CAS No. 871700-17-3) was included in each plate and used as a measure of pERK background. First, the value obtained for trametinib was subtracted from each data point. The average of DMSO (vehicle) controls (set as 0% inhibition) was established and used to calculate % inhibition:
The ability of each compound to inhibit pERK signal was expressed as an IC50 value obtained by plotting the inhibition values for each data point of a dilution series and fitting the obtained curves using a log(agonist) versus response—variable slope (four parameters) function using GraphPadPrism (V7.0) or Dotmatics Screening Ultra platform.
When present, paradoxical pERK induction is inferred from the negative % inhibition values observed in the pERK IC50 curves of a compound.

[3] = target: T2, BRAF (Homo sapiens, UniProt P15056); experiment: BRAF kinase activity assay (ADP-Glo); assay type: biochemical; details: Table 3; 10 μM ATP, kinase-dead MEK1 substrate
T2 construct: GST; purchased Millipore Sigma B4062-10UG
Description: as §1, §2, §3, §4, §5

T1 sequence (P04049 whole entry Y340E/Y341E, form open, the tested form may be a part): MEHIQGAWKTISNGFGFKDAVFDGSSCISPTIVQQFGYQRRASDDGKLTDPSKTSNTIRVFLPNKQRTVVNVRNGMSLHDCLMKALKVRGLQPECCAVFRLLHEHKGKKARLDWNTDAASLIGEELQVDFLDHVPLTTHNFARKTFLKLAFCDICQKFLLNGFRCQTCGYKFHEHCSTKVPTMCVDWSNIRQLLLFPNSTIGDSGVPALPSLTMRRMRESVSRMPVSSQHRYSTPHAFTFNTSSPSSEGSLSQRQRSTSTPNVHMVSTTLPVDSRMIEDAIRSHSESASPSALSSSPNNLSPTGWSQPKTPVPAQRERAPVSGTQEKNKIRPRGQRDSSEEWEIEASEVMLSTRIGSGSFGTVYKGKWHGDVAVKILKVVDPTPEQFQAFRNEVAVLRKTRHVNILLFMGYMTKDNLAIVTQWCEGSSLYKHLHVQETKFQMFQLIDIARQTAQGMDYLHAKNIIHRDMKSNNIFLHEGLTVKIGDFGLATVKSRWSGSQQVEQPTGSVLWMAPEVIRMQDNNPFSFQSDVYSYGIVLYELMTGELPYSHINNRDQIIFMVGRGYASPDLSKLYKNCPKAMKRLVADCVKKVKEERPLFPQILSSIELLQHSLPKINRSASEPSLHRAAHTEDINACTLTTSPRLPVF
T2 sequence (P15056 whole entry): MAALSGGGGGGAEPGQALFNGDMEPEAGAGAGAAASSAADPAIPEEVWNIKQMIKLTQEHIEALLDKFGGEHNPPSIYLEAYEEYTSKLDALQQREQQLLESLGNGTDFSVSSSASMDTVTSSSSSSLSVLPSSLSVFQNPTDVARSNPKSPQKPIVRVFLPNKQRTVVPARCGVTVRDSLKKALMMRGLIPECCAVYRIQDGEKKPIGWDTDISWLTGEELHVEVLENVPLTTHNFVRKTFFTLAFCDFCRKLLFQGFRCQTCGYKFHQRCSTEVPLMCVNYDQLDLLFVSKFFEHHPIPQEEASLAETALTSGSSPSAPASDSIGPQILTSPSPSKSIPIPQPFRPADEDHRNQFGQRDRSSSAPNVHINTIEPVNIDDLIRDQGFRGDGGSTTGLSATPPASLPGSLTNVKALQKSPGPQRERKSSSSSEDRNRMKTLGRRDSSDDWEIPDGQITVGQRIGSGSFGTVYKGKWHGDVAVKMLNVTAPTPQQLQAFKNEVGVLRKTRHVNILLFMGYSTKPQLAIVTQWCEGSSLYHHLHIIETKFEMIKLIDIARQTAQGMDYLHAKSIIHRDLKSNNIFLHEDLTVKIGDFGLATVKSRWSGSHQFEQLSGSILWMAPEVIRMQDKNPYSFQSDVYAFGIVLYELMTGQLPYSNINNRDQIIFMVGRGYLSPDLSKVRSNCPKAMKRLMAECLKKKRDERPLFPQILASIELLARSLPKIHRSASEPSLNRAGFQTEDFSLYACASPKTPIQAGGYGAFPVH

Row | Structure (SMILES) | pIC50 [1] | pIC50 [2] | pIC50 [3] | pIC50 ([2]; Homo sapiens, HCT-116) | HCT116 pERK (Ymin %) [2]
1 | COc1nccc2c1ncn2-c1nc2c(Nc3c(F)ccc(NS(=O)(=O)c4cccc(Cl)c4Cl)c3F)ncnc2s1 [Example 105] | > 8.00 | > 6.30 | 8.00 to 9.00 | – | 4%
2 | Cc1cn(-c2nc3c(Nc4c(F)ccc(NS(=O)(=O)c5cccc(Cl)c5Cl)c4F)ncnc3s2)cn1 [Example 125] | > 8.00 | 6.00 to 6.30 | 8.00 to 9.00 | – | 2%
3 | COCCOc1ccc2c(ncn2-c2nc3c(Nc4c(F)ccc(NS(=O)(=O)c5cccc(Cl)c5Cl)c4F)ncnc3s2)c1F [Example 79] | > 8.00 | – | 8.00 to 9.00 | 6.00 to 6.30 | –
4 | Cc1ncn(-c2nc3c(Nc4c(F)ccc(NS(=O)(=O)c5cccc(F)c5C)c4F)ncnc3s2)c1C [Example 1] | > 8.00 | > 6.30 | 8.00 to 9.00 | – | −11%
5 | Cc1c(F)cccc1S(=O)(=O)Nc1ccc(F)c(Nc2ncnc3sc(-n4nc(C(=O)N(C)CCN(C)C)c5ccccc54)nc23)c1F [Example 27] | 7.30 to 8.00 | 6.00 to 6.30 | 8.00 to 9.00 | – | −3%
6 | COc1ccc(S(=O)(=O)Nc2ccc(F)c(Nc3ncnc4sc(-n5cnc6ccccc65)nc34)c2F)c(C)c1F [Example 16] | 7.30 to 8.00 | 6.00 to 6.30 | 8.00 to 9.00 | – | −8%
7 | Cc1c(F)cccc1S(=O)(=O)Nc1ccc(F)c(Nc2ncnc3sc(-n4nc(C(=O)N5CCC(CO)C5)c5ccccc54)nc23)c1F (stereo not drawn) [Example 32] | 7.30 to 8.00 | 5.00 to 6.00 | 8.00 to 9.00 | – | −13%

More lines, main results first:

Row | pIC50 [1] | pIC50 [2] | pIC50 [3] | pIC50 ([2]; Homo sapiens, HCT-116) | Structure (SMILES) | HCT116 pERK (Ymin %) [2]
8 | > 8.00 | > 6.30 | > 9.00 | – | Cc1c(F)cccc1S(=O)(=O)Nc1ccc(F)c(Nc2ncnc3sc(-n4cc(C(=O)N5CCC(CO)C5)c5ccccc54)nc23)c1F (stereo not drawn) [Example 33] | −7%
9 | 7.30 to 8.00 | 6.00 to 6.30 | < 8.00 | – | O=C(c1cn(-c2nc3c(Nc4c(F)ccc(NS(=O)(=O)c5cccc(Cl)c5Cl)c4F)ncnc3s2)c2ccccc12)N1CC(O)(C(F)(F)F)C1 [Example 96] | −1%
10 | < 7.30 | > 6.30 | 8.00 to 9.00 | – | O=S(=O)(Nc1ccc(F)c(Nc2ncnc3sc(-n4cc(S(=O)(=O)C5CCCC5)c5ccccc54)nc23)c1F)c1cccc(Cl)c1Cl [Example 64] | −4%
11 | > 8.00 | > 6.30 | > 9.00 | – | N#CCC1CN(C(=O)c2cn(-c3nc4c(Nc5c(F)ccc(NS(=O)(=O)c6cccc(Cl)c6Cl)c5F)ncnc4s3)c3ccccc23)C1 [Example 60] | −2%
12 | 7.30 to 8.00 | 6.00 to 6.30 | 8.00 to 9.00 | – | C[C@]1(CO)CCCN1C(=O)c1cn(-c2nc3c(Nc4c(F)ccc(NS(=O)(=O)c5cccc(Cl)c5Cl)c4F)ncnc3s2)c2ccccc12 [Example 78] | −14%
13 | < 7.30 | > 6.30 | 8.00 to 9.00 | – | O=C(c1cn(-c2nc3c(Nc4c(F)ccc(NS(=O)(=O)c5cccc(Cl)c5Cl)c4F)ncnc3s2)c2ccccc12)N1CCC2CCCCC2(O)C1 (stereo not drawn) [Example 89] | −16%
14 | > 8.00 | > 6.30 | 8.00 to 9.00 | – | N#CC1CN(C(=O)c2cn(-c3nc4c(Nc5c(F)ccc(NS(=O)(=O)c6cccc(Cl)c6Cl)c5F)ncnc4s3)c3ccccc23)C1 [Example 54] | −6%
15 | < 7.30 | > 6.30 | 8.00 to 9.00 | – | CC(C)S(=O)(=O)c1cn(-c2nc3c(Nc4c(F)ccc(NS(=O)(=O)c5cccc(Cl)c5Cl)c4F)ncnc3s2)c2ccccc12 [Example 73] | −12%
16 | > 8.00 | > 6.30 | 8.00 to 9.00 | – | COCCNS(=O)(=O)c1cn(-c2nc3c(Nc4c(F)ccc(NS(=O)(=O)c5cccc(Cl)c5Cl)c4F)ncnc3s2)c2ccccc12 [Example 62] | 2%
